Measurements taken from patent publication US10653691B2, “Method of promoting remyelination” (Case Western Reserve University, priority 2013, dated 2020).

Test system: EpiSC-derived OPCs
Experiment: Dose-response testing of drug hits (percent PLP1+ oligodendrocytes, cytotoxicity)
Assay type: cell-based, mouse
Settings: seven point dose response; seen only at the highest 6.7 μM dose
Description: Dose-response testing of drug hits followed the same procedure with the following modifications to eliminate any artefacts in the primary screen: independently sourced drugs; a distinct batch of EpiSC-derived OPCs from a mouse of opposite sex; multi-dose testing; cytotoxicity analysis; an alternative marker of mature oligodendrocytes proteolipid protein 1 (PLP1, antibody clone AA3 provided by B. Trapp; 1:5,000); and an alternative high content assay endpoint parameter (percentage of oligodendrocytes differentiated instead of process intensity and length parameters). […]
For the 5 μM in vitro screen, stained plates were imaged on the Opera confocal imaging system (PerkinElmer) and a set of 24×10 fields were collected from each well, resulting in an average of 10,000 cells being scored per well. For the dose-response (6.7 μM, 5 μM, 3.3 μM, 1.7 μM, 666 nM, 500 nM, and 333 nM) in vitro assays, plates were imaged on the Operetta High Content Imaging and Analysis system (PerkinElmer) and a set of 14×20 fields captured from each well resulting in an average of 3,300 cells being scored per well. […] Each traced nucleus region was then expanded by 50% and cross-referenced with the mature myelin protein (MBP or PLP1) stain to identify oligodendrocyte nuclei, and from this the percentage of oligodendrocytes was calculated. […]

Clc1ccc(COC(Cn2ccnc2)c2ccc(Cl)cc2Cl)c(Cl)c1 (stereo not shown) [miconazole]
toxicity and decrease in PLP1 positive cells in dose response: Slight toxicity and a decrease in PLP1 positive cells
